Results on 1 compound are retold here after patent publication US10941121B2 (AZIENDA OSPEDALIERA UNIVERSITARIA SENESE, priority 2015, dated 2021).

In data set [1] the test system is JEV strain (NJ2008). Put plainly: JEV infectious cell culture system, plaque formation assay in BHK-21 cells. Conditions: Japanese encephalitis virus, BHK-21, read-out: JEV EC50.
Data set [2] has as its system human liver microsome (HLM). Put plainly: Microsomal Stability Assay. As to conditions: human liver microsomes, 37 °C, 60 min, compound 50 μM; percentage of not metabolized compound. In general terms: Microsomes from liver hold many membrane-bound enzymes, among them those of drug oxidation.
Data set [3] can be described thus: Cytotoxicity in the JEV cell culture system. Conditions: hamster.
The target of data set [4] is DDX3 Helicase (Homo sapiens, UniProt O00571). Conditions: read-out: ID50 (μM) against DDX3 Helicase; n.a. = compound not active.
Data set [5] in a line: Cytotoxicity in PBMC, CellTiter 96 MTS viability assay. Format: cell-based. As to conditions: human, human primary PBMCs. (Tetrazolium dyes change colour on reduction, which living cells bring about.)
In data set [6] the test system is HIV (PBMC). The experiment in a line: HIV infectious cell culture system in PBMC, HIV-1 RNA in supernatant. As to conditions: Human immunodeficiency virus 1, PBMC, 72 h, read-out: EC50 HIV (PBMC) 72 h.
Data set [7] has as its system PRRSV. The experiment in a line: PRRSV infectious cell culture system, plaque formation assay in MARC-145 cells. Format: cell-based. As to conditions: Porcine reproductive and respiratory syndrome virus, MARC145; viral titre by plaque formation assay in MARC-145 cells. How it is done:
According to the requirement of different experiments, MARC-145 cells were either infected with PRRSV at MOIs of 0.1, 1 or 10, or mock infected with phosphate-buffered saline (PBS). After 1 h incubation at 37° C., unbounded viruses were removed by washing thrice with PBS and cultured in DMEM supplemented with 8% FBS at 37° C. for various lengths of time. For the autophagy induction and inhibition experiments, MARC-145 cells were pretreated with varying concentrations of rapamycin or 3-MA for 4 h before viral infection. MARC-145 cells were then infected with PRRSV at MOI of 1. After 1 h incubation at 37° C., unbounded viruses were removed by washing thrice with PBS and cultured in DMEM supplemented with 2% FBS containing varying concentrations of compound, 3-MA or the corresponding amount of dimethyl sulfoxide (DMSO, control) at 37° C. for 24 h.

The subject of data set [8] is HIV-1 wild-type reference strain NL4-3. The experiment in a line: HIV-1 phenotypic assay, MT-2 cells then TZM-bl cells, luciferase. Format: cell-based. Conditions: Human immunodeficiency virus 1, NL43; first cycle in MT-2 cells, additional round in TZM-bl cells.

DDX3 Helicase, sequence (O00571 whole entry): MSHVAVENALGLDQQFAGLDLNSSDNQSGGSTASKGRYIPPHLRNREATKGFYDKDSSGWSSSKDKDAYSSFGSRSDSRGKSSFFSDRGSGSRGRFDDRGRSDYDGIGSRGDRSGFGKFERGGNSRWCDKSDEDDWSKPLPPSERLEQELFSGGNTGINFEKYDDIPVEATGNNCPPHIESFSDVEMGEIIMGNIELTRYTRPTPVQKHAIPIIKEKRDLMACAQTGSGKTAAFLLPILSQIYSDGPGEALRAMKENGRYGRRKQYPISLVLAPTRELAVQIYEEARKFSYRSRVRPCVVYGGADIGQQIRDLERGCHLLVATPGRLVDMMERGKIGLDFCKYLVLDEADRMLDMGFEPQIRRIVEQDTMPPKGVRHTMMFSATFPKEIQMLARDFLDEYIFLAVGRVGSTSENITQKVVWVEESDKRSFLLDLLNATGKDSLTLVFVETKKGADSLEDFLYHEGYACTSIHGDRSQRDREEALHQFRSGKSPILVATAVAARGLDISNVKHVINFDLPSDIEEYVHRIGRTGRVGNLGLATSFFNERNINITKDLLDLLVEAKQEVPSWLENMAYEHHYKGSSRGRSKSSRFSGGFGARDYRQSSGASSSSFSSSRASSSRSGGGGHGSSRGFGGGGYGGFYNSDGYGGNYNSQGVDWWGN

The EC50 is the concentration at which the effect is half-maximal. Usually CC50 stands for the concentration that lowers cell viability or growth by half. Low values mean harm at low concentration, high ones better tolerance by the cells. With `CCCCc1cn(-c2cccc(S(=O)(=O)Nc3ccccc3C(F)(F)F)c2)nn1` [Compound 64d, 3-(4-butyl-1H-1,2,3-triazol-1-yl)-N-(2-(trifluoromethyl)phenyl)benzenesulfonamide], the EC50 in data set [1] is 6.7 µM; in data set [6], 31 µM; in data set [7], 30 µM; in data set [8], 12.7 µM. In addition, in data set [2], the “Metabolic stability (Sability %)” value was 99%. Moreover, the CC50 in data set [3] was above 50 µM. Further, the IC50 in data set [4] amounted to 0.4 µM. The midpoint of cytotoxicity in data set [5] (24 h), the CC50 at 24 h, lay at 2130 µM. This compound also yielded a CC50 at 48 h in data set [5] (48 h) of 332 µM. Further, the CC50 at 72 h in data set [5] (72 h) turned out to be 198 µM.
